Assay results as given in paper PMC10657444, “Design and evaluation of tadpole-like conformational antimicrobial peptides” (Communications Biology, 2023).
≈ marks a conversion by molar mass, not a printed value. Where “and” joins values, the source holds several entries; their conditions need not be identical. Identical values can stand only once. Like-named read-outs stand apart in the source and are kept apart here. Residues, ends and D or L forms follow the SMILES beside them.

Legend:
MRSA USA 300 [1] = experiment: microbe, parasite or virus in culture; format: cell-based, Staphylococcus aureus
Experimental: MRSA USA 300 and K. pneumoniae ATCC 700603 were employed to assess the development of resistance. From inoculated microtiter panels, an aliquot of the well with the highest concentration permitting growth was taken and back diluted in fresh media to a turbidity of a 0.5 McFarland standard. This suspension was then further diluted and used to inoculate a fresh MIC panel resulting in a final concentration of 5 × 10^6 CFU/mL. Panels were incubated according to CLSI guidelines (M07, 11th edition, 2018), MICs were recorded and the next inoculum was prepared from the well containing the highest concentration of drug that allowed growth in identical fashion as described above.

[2] = system: K. pneumoniae ATCC 700603; format: cell-based, Klebsiella pneumoniae
Experimental: The stability of peptides in different media was assessed using the MIC assay described above. Here, the stability of HT2 and RI-HT2 in serum, salt, and different pH were analyzed using methods previously described with some modifications. For serum stability, a solution of 10% or 20% fetal bovine serum (FBS) was made by diluting fetal bovine serum with phosphate buffer saline (PBS). HT2 and RI-HT2 were added for a final concentration of 160 µg/mL of peptide in the FBS solution, and incubation 2 h. Suspension containing no peptide was considered the negative control. The MIC of HT2 and RI-HT2 against MRSA USA 300 and K. pneumoniae ATCC 700603 were measured. For the acid stability assays, the peptides were incubated with different pH values of PBS (pH = 5.5 or 6.4) at 37 °C. These peptide mixtures were then serially diluted in a 96-well plate for the evaluation of antimicrobial activity against bacterial strains. Similarly, for salt stability, the peptides were assessed for their antimicrobial activity against MRSA USA 300 and K. pneumoniae ATCC 700603 in the presence of 150 mM NaCl.

MRSA USA 300 [3] = experiment: Time-kill assay; format: cell-based, Staphylococcus aureus
Experimental: Time-kill assays were done in tubes (in 1.5 mL of LB) and antibiotics at the 1 ×, 2 ×, 4 × and 8 × MIC. Tubes were inoculated (5 × 10^6 CFU/mL) with MRSA USA 300 and K. pneumoniae ATCC 700603 and incubated at 37 °C under shaking. Serial dilutions of the cultures were plated at each desired time point (0, 1, 3, 6, and 24 h), using a multichannel pipette as follows: in line 1 of a 96-well plate, 100 µL of bacterial suspension was added, while 90 µL of 0.9% sterile saline per well was added to the other lines. At selected time points, 100 µL of bacterial suspension was transferred from the time-kill assay plate to the first line. The wells were further diluted 1 in 10 (0.9% saline) for the appropriate number of dilutions and 10 μL of each dilution was spotted in duplicate onto MH agar plates, then incubated overnight at 37°C. The colonies in each spot were counted and used to calculate the number of viable CFU/mL remaining in the original culture by considering the dilution factors.

For `CC[C@H](C)[C@H](NC(=O)[C@H](CCCNC(=N)N)NC(=O)[C@H](CCCNC(=N)N)NC(=O)[C@H](CC(C)C)NC(=O)[C@H](Cc1ccccc1)NC(=O)[C@@H](N)CCCNC(=N)N)C(=O)N[C@@H](Cc1ccccc1)C(=O)N[C@@H](Cc1ccccc1)C(=O)N[C@@H](Cc1ccccc1)C(=O)N[C@@H](Cc1ccccc1)C(N)=O` [HT2] (H-RFLRRIFFFF-NH2), the “Concentration (MIC in drug resistance assay)” value (shortened to “Concentration”) (MRSA USA 300 [1]; MRSA USA 300, day 2) was 3.125 mg/L, the “Concentration” value (MRSA USA 300 [1]; MRSA USA 300, day 3) was 3.125 mg/L and the “Concentration” value (MRSA USA 300 [1]; MRSA USA 300, day 11) was 3.125 mg/L. For the same compound, the “Concentration” value (MRSA USA 300 [1]; MRSA USA 300, day 13) was 3.125 mg/L, the “Concentration” value (MRSA USA 300 [1]; MRSA USA 300, day 22) was 12.5 mg/L and the “Concentration” value (MRSA USA 300 [1]; MRSA USA 300, day 26) was 12.5 mg/L. For the same compound, the “Concentration” value (MRSA USA 300 [1]; MRSA USA 300, day 27) was 12.5 mg/L, the “Concentration” value (MRSA USA 300 [1]; MRSA USA 300, day 28) was 12.5 mg/L and the “Concentration” value (MRSA USA 300 [1]; MRSA USA 300, day 29) was 12.5 mg/L. The “Concentration” value (MRSA USA 300 [1]; MRSA USA 300, day 32) was 12.5 mg/L, the “Concentration” value (MRSA USA 300 [1]; MRSA USA 300, day 33) was 12.5 mg/L and the “Concentration” value (MRSA USA 300 [1]; MRSA USA 300, day 34) was 12.5 mg/L. The “Concentration” value (MRSA USA 300 [1]; MRSA USA 300, day 35) was 12.5 mg/L, the “Concentration” value (MRSA USA 300 [1]; MRSA USA 300, day 37) was 12.5 mg/L and the “Concentration” value (MRSA USA 300 [1]; MRSA USA 300, day 38) was 12.5 mg/L. For the same compound, the “Concentration” value (MRSA USA 300 [1]; MRSA USA 300, day 39) was 12.5 mg/L, the “Concentration” value (MRSA USA 300 [1]; MRSA USA 300, day 40) was 12.5 mg/L and the “increase in MIC after 40 passages” value (MRSA USA 300 [1]; serial passage at sub-MIC) was “four-fold”. For the same compound, the “MIC against K. pneumoniae ATCC 700603” value ([2]; 150 mM NaCl) was 12.5 µM (≈ 18.1 µg/mL), the “MIC against K. pneumoniae ATCC 700603” value ([2]; 10% FBS) was 6.25 µM (≈ 9.05 µg/mL) and the “MIC against K. pneumoniae ATCC 700603” value ([2]; 20% FBS) was 6.25 µM (≈ 9.05 µg/mL). For the same compound, the “MIC against K. pneumoniae ATCC 700603” value ([2]; Normal medium) was 6.25 µM (≈ 9.05 µg/mL), the “MIC against K. pneumoniae ATCC 700603” value ([2]; pH 5.5) was 12.5 µM (≈ 18.1 µg/mL) and the “MIC against K. pneumoniae ATCC 700603” value ([2]; pH 6.4) was 6.25 µM (≈ 9.05 µg/mL). The “viable count, time-kill” value (MRSA USA 300 [3]; 2 × MIC, 0 h) was 3600000 CFU/mL and 3500000 CFU/mL and 3200000 CFU/mL, the “viable count, time-kill” value (MRSA USA 300 [3]; 2 × MIC, 3 h) was 3900000 CFU/mL and 3800000 CFU/mL and the “viable count, time-kill” value (MRSA USA 300 [3]; 2 × MIC, 6 h) was 1700000 CFU/mL and 1900000 CFU/mL. The “viable count, time-kill” value (MRSA USA 300 [3]; 2 × MIC, 24 h) was 910000 CFU/mL and 920000 CFU/mL and 890000 CFU/mL, the “viable count, time-kill” value (MRSA USA 300 [3]; 4 × MIC, 0 h) was 3600000 CFU/mL and 3500000 CFU/mL and 3200000 CFU/mL and the “viable count, time-kill” value (MRSA USA 300 [3]; 4 × MIC, 1 h) was 970000 CFU/mL and 1040000 CFU/mL and 1090000 CFU/mL. The “viable count, time-kill” value (MRSA USA 300 [3]; 4 × MIC, 3 h) was 840000 CFU/mL and 870000 CFU/mL and 910000 CFU/mL, the “viable count, time-kill” value (MRSA USA 300 [3]; 4 × MIC, 6 h) was 150000 CFU/mL and 160000 CFU/mL and 180000 CFU/mL and the “viable count, time-kill” value (MRSA USA 300 [3]; 4 × MIC, 24 h) was 68000 CFU/mL and 71000 CFU/mL and 72000 CFU/mL. For the same compound, the “viable count, time-kill” value (MRSA USA 300 [3]; 8 × MIC, 0 h) was 3600000 CFU/mL and 3500000 CFU/mL and 3200000 CFU/mL, the “viable count, time-kill” value (MRSA USA 300 [3]; 8 × MIC, 1 h) was 990000 CFU/mL and 950000 CFU/mL and 910000 CFU/mL and the “viable count, time-kill” value (MRSA USA 300 [3]; 8 × MIC, 3 h) was 580000 CFU/mL and 590000 CFU/mL. The “viable count, time-kill” value (MRSA USA 300 [3]; 8 × MIC, 6 h) was 68000 CFU/mL and 70000 CFU/mL and 77000 CFU/mL, the “viable count, time-kill” value (MRSA USA 300 [3]; 8 × MIC, 24 h) was 1000 CFU/mL and 1100 CFU/mL and 1400 CFU/mL and the “killing outcome (in words)” value (MRSA USA 300 [3]; 8 × MIC, after 24 h) was “cannot completely be killed”. The “viable count, time-kill” value (MRSA USA 300 [3]; MIC, 0 h) was 3600000 CFU/mL and 3500000 CFU/mL and 3200000 CFU/mL, the “viable count, time-kill” value (MRSA USA 300 [3]; MIC, 1 h) was 4600000 CFU/mL and 4900000 CFU/mL and the “viable count, time-kill” value (MRSA USA 300 [3]; MIC, 3 h) was 2100000 CFU/mL and 2000000 CFU/mL and 2300000 CFU/mL. The “viable count, time-kill” value (MRSA USA 300 [3]; MIC, 6 h) was 2800000 CFU/mL and 2500000 CFU/mL and 1700000 CFU/mL and the “viable count, time-kill” value (MRSA USA 300 [3]; MIC, 24 h) was 4100000000 CFU/mL and 4400000000 CFU/mL and 4900000000 CFU/mL.
